Data: article PMC9230671, “Fluorochrome Selection for Imaging Intraoperative Ovarian Cancer Probes” (Pharmaceuticals, 2022)
Marks after values point to notes of the source that are not given here.

Columns and labels:
COX-1 = biological target: T1, COX-1 (Ovis aries, UniProt P05979); assay: COX-1 inhibition, COX (ovine/human) inhibitor screening assay kit; format: biochemical
T1 construct: purchased Cayman Chemicals (bought through Sigma-Aldrich) 560131
T1 sequence (P05979 25-600): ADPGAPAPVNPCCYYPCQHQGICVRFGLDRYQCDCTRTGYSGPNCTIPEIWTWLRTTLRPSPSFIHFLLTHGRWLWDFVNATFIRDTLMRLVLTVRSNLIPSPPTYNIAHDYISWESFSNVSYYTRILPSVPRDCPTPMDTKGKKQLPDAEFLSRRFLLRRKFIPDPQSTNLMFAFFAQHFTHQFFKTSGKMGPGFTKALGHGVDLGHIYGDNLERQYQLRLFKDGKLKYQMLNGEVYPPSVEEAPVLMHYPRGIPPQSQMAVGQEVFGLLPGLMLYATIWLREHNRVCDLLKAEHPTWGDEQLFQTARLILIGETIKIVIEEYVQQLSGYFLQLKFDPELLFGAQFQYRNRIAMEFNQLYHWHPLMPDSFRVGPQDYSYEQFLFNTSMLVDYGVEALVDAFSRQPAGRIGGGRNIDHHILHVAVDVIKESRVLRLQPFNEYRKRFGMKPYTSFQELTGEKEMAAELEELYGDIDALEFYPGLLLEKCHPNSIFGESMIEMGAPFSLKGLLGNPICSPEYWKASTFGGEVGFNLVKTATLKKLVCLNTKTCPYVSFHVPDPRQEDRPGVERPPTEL
Method: Cell culture reagents were purchased from Euroclone (Milan, Italy). COX (ovine/human) inhibitor screening assay kit (Catalog No. 560131, Cayman Chemicals, Ann Arbor, MI, USA) was purchased from Sigma-Aldrich, Burlington, MA, USA. […] The other reagents were purchased from Sigma-Aldrich, Burlington, MA, USA.
The COX-1/2 inhibition screening experiments were carried out according to the manufacturer’s instructions. The plate was incubated for 60 min at r.t. under shaking and read with the Tecan Infinite 200 Microplate Reader at λ = 405 nm.
The graph between percent inhibition of the enzyme and corresponding concentration of the compound provided IC50 values for the probe compounds.

[1] = Fluorescence property measurements (absorption/emission spectra); format: physicochemical; parameters: Stokes Shift: unit not given here
Method: The λabs and λem, of the target compounds were measured in aqueous solution (phosphate-buffered saline solution, PBS) at the concentration of 10^−5 M (Table 1).
Fluorescence spectra of all target compounds were determined in PBS and EtOH solutions (Table 1) with a Tecan Infinite 200 Microplate Reader. In all experiments, the excitation and the emission bandpass were set at λ = 5 nm. The emission spectra were obtained from λ = 280 to 850 nm, with excitation set at the appropriate excitation wavelength. Absorption spectra were recorded with a Shimadzu UV-1800 spectrophotometer.

SKOV-3 xenograft tumors = assay: NIR fluorescence imaging / biodistribution in SKOV-3 s.c. xenograft models; format: in vivo, NSG mice; conditions: SKOV-3 s.c. mice, i.v.
Method: In addition to OVCAR-3, the COX-1 low expressing SKOV-3 cell line was subcutaneously xenografted to evaluate the specificity of RR11 and 23 (MSA14). RR11 exerted high tumor fluorescence already two hours after injection (n = 2) with similar organ biodistribution as already observed in OVCAR-3 xenografts (TBR = 1.28; Figure 4A and Figure 5A). 23 (MSA14) was evaluated at 6 and 24 h, with a dose of 100 µM and 500 µM in n = 4 SKOV-3 models. […] However, the tumor fluorescence intensity was not sufficient to discriminate between healthy organs and malignant tissue at low exposure times of 100 ms “ex vivo”. The fluorescence signal in COX-1 low-expressing SKOV-3 tumors might be an indication of non-specific compound accumulation.
Female NOD-scid IL2rγ^null (NSG) mice, aged 6 to 25 weeks were maintained under defined floral conditions and no more than five mice were housed in individually ventilated (HEPA-filtered air) cages, kept on a 12 h dark/night schedule at a constant temperature of 21 °C and at 50% relative humidity at the University of Bergen’s animal facility. Observations of body weight and general condition including activity levels, appearance, and food intake were monitored twice weekly, and humane endpoints were defined with the use of score sheets. When indicated, animals were euthanized according to institutional guidelines.
Single cell suspensions of SKOV-3 and OVCAR-3 ovarian cancer cells, cultured as previously described, were obtained by washing the adherent cells with PBS and detached with trypsin-EDTA for 3–5 min at 37 °C. For subcutaneous injection (s.c.), cells were resuspended in an ice-cold mixture of 100 µL per insulin syringe (3/10-cc with 30 g needle) comprising 50 μL saline, 25 µL medium, and 25 µL Matrigel (cat# 08-774-391, Corning Inc®, Fisher Scientific, Waltham, MA, USA). SKOV-3 and OVCAR-3 subcutaneous xenograft models were established through lateral flank injection of 5 × 10^6 cells and 1 × 10^6 cells, respectively, under 3.5% sevoflurane inhalation anesthesia (cat# 29960 SevoFlo, Zoetis, Louvain-la-Neuve, Belgium). Mice were imaged with RR11 and MSA14 when the caliper measurements reached 200–500 mm^3 (Volume = (height × width × length × π)/6).
“In vivo” and “ex vivo” FLI was performed with both COX-1 targeting compounds, the reference compound RR11 and the novel 23 (MSA14), at different concentrations and time points. Prior to FLI, mice were shaved to avoid autofluorescence background signal. The desired concentration (100 µM, 500 µM) of the compound stock solutions in DMSO were freshly diluted with PBS, before 100 µL was injected intravenously into the tail vein. FLI was performed with the IVIS Spectrum In Vivo Imaging System with a λabs 640 ± 15 nm bandpass filter (BP), λem 680 ± 10 nm BP for RR11, and λabs 745 ± 15 nm BP, λem 820 ± 10 nm BP for 23 (MSA14), 0.5–24 h after small molecule administration. All scans were acquired with epi-illumination and auto exposure. Regions of interest (ROI) were manually gated around the tumor, organs, or the whole ventral and lateral positioned mouse and calculated using the Living image software (Perkin Elmer). The ROI of the muscle at the flank region was used to calculate the tumor-to-background (TBR) ratios.

[2] = ethanol (10^−4 M), two bands, listed as 23

IC50 (COX-1) [nM]	inhibition at 50 µM (COX-1; at 50 µM compound final concentration, read-out: COX-1 % inhib.) [%]	λabs [1, 2] [nm]	λem [1, 2] [nm]	SI (selectivity index) (COX-1)	COX-1 % inhib. (COX-1; at 50 µM compound final concentration) [%]	Stokes Shift ([1]; ethanol (10^−5 M))	λabs ([1]; ethanol (10^−5 M))	λem ([1]; ethanol (10^−5 M))	Structure (SMILES)	average TBR (SKOV-3 xenograft tumors; 6 h, 100 µM)	average TBR (SKOV-3 xenograft tumors; 6 h, 500 µM)	average TBR (SKOV-3 xenograft tumors; 24 h, 100 µM)	average TBR (SKOV-3 xenograft tumors; 24 h, 500 µM)	tumor-to-background ratio (TBR) (SKOV-3 xenograft tumors; two hours after injection)
87	57	770	822	–	–	–	–	–	CCN1/C(=C/C=C/C=C/C=C/C2=[N+](CCCCCC(=O)NCCCCNC(=O)Cc3onc(-c4ccc(OC)cc4)c3-c3ccc(OC)cc3)c3ccc4ccccc4c3C2(C)C)C(C)(C)c2c1ccc1ccccc21 [23 (MSA14), 3-(6-(4-(2-(3,4-Bis(4-methoxyphenyl)isoxazole-5-yl)acetamido)butyl)amino-6-oxohexyl)-2-[7-(1,3-dihydro-1,1-dimethyl-3-ethyl-2H-benz[e]indolin-2-yl-idene)-1,3,5-heptatrienyl]-1,1-dimethyl-3-(6-carboxilato-hexyl)-1H-benz[e]indolium chloride]	1.23	1.49	1.96	1.5	–
32	–	–	–	75	83	62	610 ^b nm	672 ^b nm	COc1ccc(-c2noc(CC(=O)NCCCCNc3cc4[o+]c5cc(N(C)C)ccc5nc4c4ccccc34)c2-c2ccc(OC)cc2)cc1.[Cl-] [RR11, N-[4-(9-dimethylimino-9H-benzo[a]phenoxazin-5-ylamino)butyl]-2-(3,4-bis(4-methoxyphenyl)isoxazol-5-yl)acetamide chloride, reference compound]	–	–	–	–	1.28
